Source: the supplement of paper PMC5908809

Legend:
NK-YS (IL-2 2.5 ng/mL) [1] = assay: drug sensitivity score (DSS) (DSS units); higher = more sensitive; extreme values may be limits of the assay; conditions: 72 h
[2] = test system: normal primary NK cells, pool 3 (3 donors) (IL-2 2.5 ng/mL); assay: as above; conditions: 72 h
NKL (IL-2 2.5 ng/mL) [3] = assay: as above; conditions: 72 h
NK-92 (IL-2 2.5 ng/mL) [4] = assay: as above; conditions: 72 h
[5] = test system: normal primary NK cells, pool 1 (3 donors) (IL-2 2.5 ng/mL); assay: as above; conditions: 72 h
[6] = test system: normal primary NK cells, pool 1 (3 donors), resting (IL-2 0 ng/mL); assay: as above; conditions: 72 h
[7] = test system: normal primary NK cells, pool 2 (3 donors) (IL-2 2.5 ng/mL); assay: as above; conditions: 72 h
IMC-1 (IL-2 20 ng/mL) [8] = assay: as above; conditions: 72 h
YT (IL-2 2.5 ng/mL) [9] = assay: as above; conditions: 72 h
KHYG-1 (IL-2 2.5 ng/mL) [10] = assay: as above; conditions: 72 h
KAI3 (IL-2 2.5 ng/mL) [11] = assay: as above; conditions: 72 h
DERL-7 (IL-2 2.5 ng/mL) [12] = assay: as above; conditions: 72 h
SNK-6 (IL-2 2.5 ng/mL) [13] = assay: as above; conditions: 72 h
NK-YS (IL-2 2.5 ng/mL) [14] = assay: percent inhibition of viability; higher = more inhibition; conditions: 72 h
[15] = test system: normal primary NK cells, pool 3 (3 donors) (IL-2 2.5 ng/mL); assay: as above; conditions: 72 h
NKL (IL-2 2.5 ng/mL) [16] = assay: as above; conditions: 72 h
NK-92 (IL-2 2.5 ng/mL) [17] = assay: as above; conditions: 72 h
[18] = test system: normal primary NK cells, pool 1 (3 donors) (IL-2 2.5 ng/mL); assay: as above; conditions: 72 h
[19] = test system: normal primary NK cells, pool 1 (3 donors), resting (IL-2 0 ng/mL); assay: as above; conditions: 72 h
[20] = test system: normal primary NK cells, pool 2 (3 donors) (IL-2 2.5 ng/mL); assay: as above; conditions: 72 h
IMC-1 (IL-2 20 ng/mL) [21] = assay: as above; conditions: 72 h
YT (IL-2 2.5 ng/mL) [22] = assay: as above; conditions: 72 h
KHYG-1 (IL-2 2.5 ng/mL) [23] = assay: as above; conditions: 72 h
KAI3 (IL-2 2.5 ng/mL) [24] = assay: as above; conditions: 72 h
DERL-7 (IL-2 2.5 ng/mL) [25] = assay: as above; conditions: 72 h
SNK-6 (IL-2 2.5 ng/mL) [26] = assay: as above; conditions: 72 h
[27] = test system: normal NK cells expanded with K562-aAPC; assay: drug sensitivity score (DSS) (DSS units); higher = more sensitive; extreme values may be limits of the assay; conditions: 72 h; IL-2 2.5 ng/mL
Protocol: (§1)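 Drug sensitivity and resistance testing on K562-aAPC-expanded normal NK cells: 5 concentrations (10-fold steps over a 10,000-fold range), 72 h at 37 °C, viability by CellTiter-Glo normalised to DMSO and benzethonium chloride controls; DSS from the fitted curve.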

[28] = test system: normal NK cells expanded with K562-aAPC; assay: percent inhibition of viability; higher = more inhibition; conditions: 72 h, IL-2 2.5 ng/mL
Protocol: as §1

C[C@]1(O)C[C@@H](c2nc(-c3ccc4ccc(-c5ccccc5)nc4c3)c3c(N)nccn32)C1 [Linsitinib] (max concentration tested 10000 nM)
Conditions	drug sensitivity score
DERL-7 (IL-2 2.5 ng/mL) [12]	0
IMC-1 (IL-2 20 ng/mL) [8]	0
KAI3 (IL-2 2.5 ng/mL) [11]	0
KHYG-1 (IL-2 2.5 ng/mL) [10]	0
NK-92 (IL-2 2.5 ng/mL) [4]	3.33
NK-YS (IL-2 2.5 ng/mL) [1]	0
NKL (IL-2 2.5 ng/mL) [3]	0.01
SNK-6 (IL-2 2.5 ng/mL) [13]	0
YT (IL-2 2.5 ng/mL) [9]	0.72
[2]	0.23
[5]	0.79
[6]	3.19
[7]	1.67
[27]	0

percent inhibition of viability [%]
Conditions	1 nM	10 nM	100 nM	1000 nM	10000 nM
DERL-7 (IL-2 2.5 ng/mL) [25]	-5.4	6.82	-0.65	-2.2	7.81
IMC-1 (IL-2 20 ng/mL) [21]	-3.5	-2.97	-5.08	-2.76	-3.58
KAI3 (IL-2 2.5 ng/mL) [24]	6.27	-1.21	-4.49	-3.92	-0.2
KHYG-1 (IL-2 2.5 ng/mL) [23]	-4.45	-3.38	-4.33	0.38	8.9
NK-92 (IL-2 2.5 ng/mL) [17]	2.33	5.73	13	14.5	29.1
NK-YS (IL-2 2.5 ng/mL) [14]	-6.48	-5.34	-2.18	3.9	7.93
NKL (IL-2 2.5 ng/mL) [16]	-9.46	-15.4	-8.54	-9.73	12.4
SNK-6 (IL-2 2.5 ng/mL) [26]	5.21	-12.6	-15.2	-16.7	-11
YT (IL-2 2.5 ng/mL) [22]	1.95	2.48	2.32	5.99	17.4
[15]	-0.78	1.11	5.04	-1.16	15.8
[18]	-5.96	-9.98	-7.82	-7.33	27.3
[19]	-20.4	-14.2	17.7	8.71	42.2
[20]	-2.53	1.1	-5.12	3.42	27.6
[28]	-3.84	-4.8	-1.86	-1.74	2.14

C=CC(=O)N1CCC[C@@H](n2nc(-c3ccc(Oc4ccccc4)cc3)c3c(N)ncnc32)C1 [Ibrutinib] (max concentration tested 1000 nM)
Conditions	drug sensitivity score
DERL-7 (IL-2 2.5 ng/mL) [12]	2.68
IMC-1 (IL-2 20 ng/mL) [8]	0
KAI3 (IL-2 2.5 ng/mL) [11]	1.54
KHYG-1 (IL-2 2.5 ng/mL) [10]	0
NK-92 (IL-2 2.5 ng/mL) [4]	0.3
NK-YS (IL-2 2.5 ng/mL) [1]	0.35
NKL (IL-2 2.5 ng/mL) [3]	4.8
SNK-6 (IL-2 2.5 ng/mL) [13]	0
YT (IL-2 2.5 ng/mL) [9]	3.17
[2]	0
[5]	2.44
[6]	2.74
[7]	0
[27]	0

percent inhibition of viability [%]
Conditions	0.1 nM	1 nM	10 nM	100 nM	1000 nM
DERL-7 (IL-2 2.5 ng/mL) [25]	2.78	2.44	6.17	7.83	34.1
IMC-1 (IL-2 20 ng/mL) [21]	-4.48	-0.1	-1.11	-2.87	-8.75
KAI3 (IL-2 2.5 ng/mL) [24]	1.69	2.89	0.25	8.29	20.5
KHYG-1 (IL-2 2.5 ng/mL) [23]	-6.77	-1.35	-1.82	0.67	8.69
NK-92 (IL-2 2.5 ng/mL) [17]	-15.8	-16.1	-8.18	0.25	15.7
NK-YS (IL-2 2.5 ng/mL) [14]	-1.09	-1.95	-0.26	0.88	15.6
NKL (IL-2 2.5 ng/mL) [16]	-5.52	0.29	10.1	24.2	30
SNK-6 (IL-2 2.5 ng/mL) [26]	-11.4	9.91	-7.4	1.24	8.78
YT (IL-2 2.5 ng/mL) [22]	-2.79	-1.68	-0.35	13.8	31.3
[15]	-5.07	4.6	-2.73	-10.7	-14
[18]	-0.62	9.62	12.7	12.1	21
[19]	-3.67	8.12	16.8	10	22.4
[20]	-6.12	0.44	7.05	-9.76	10.5
[28]	-2.6	-5.62	-10	-0.99	-0.93
